Patent US9102635B2, “Substituted bisphenyl butanoic acid derivatives as NEP inhibitors with improved in vivo efficacy” (NOVARTIS AG, priority 2013, dated 2015)

Tests used:
[1] = target: T1, recombinant human neutral endopeptidase (Homo sapiens, UniProt P08473); experiment: in vitro inhibition of recombinant human neutral endopeptidase (fluorescence lifetime assay); type: biochemical; conditions: 1 hour pre-incubation, 1 hour reaction, room temperature, pH 7.4; read-out: Human NEP IC50
T1 construct: made in house; host or cells: insect cells
T1 sequence (P08473 whole entry): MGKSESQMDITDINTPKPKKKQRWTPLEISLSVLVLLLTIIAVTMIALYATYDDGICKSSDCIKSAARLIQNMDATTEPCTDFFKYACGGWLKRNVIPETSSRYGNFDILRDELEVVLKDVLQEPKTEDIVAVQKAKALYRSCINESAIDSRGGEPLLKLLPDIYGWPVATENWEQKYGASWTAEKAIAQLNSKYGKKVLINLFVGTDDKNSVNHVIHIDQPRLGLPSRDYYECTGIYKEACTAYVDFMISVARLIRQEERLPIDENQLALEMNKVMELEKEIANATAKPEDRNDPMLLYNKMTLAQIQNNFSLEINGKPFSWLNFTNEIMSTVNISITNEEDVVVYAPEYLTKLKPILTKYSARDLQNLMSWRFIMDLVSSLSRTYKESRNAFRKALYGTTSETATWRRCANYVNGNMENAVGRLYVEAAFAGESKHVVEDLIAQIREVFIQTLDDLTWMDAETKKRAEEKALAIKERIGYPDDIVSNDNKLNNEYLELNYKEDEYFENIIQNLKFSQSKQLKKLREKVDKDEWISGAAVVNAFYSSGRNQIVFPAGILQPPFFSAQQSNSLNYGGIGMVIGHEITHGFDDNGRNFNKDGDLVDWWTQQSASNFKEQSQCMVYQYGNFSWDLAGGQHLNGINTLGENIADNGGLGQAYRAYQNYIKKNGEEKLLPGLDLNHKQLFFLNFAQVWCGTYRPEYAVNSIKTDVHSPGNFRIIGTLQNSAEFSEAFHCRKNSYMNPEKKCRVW
Text: The activity of a compound according to the present invention can be assessed by the following in vitro and in vivo methods and/or by the following in vitro and in vivo methods well-described in the art. See Doering K, Meder G, Hinnenberger M, Woelcke J, Mayr L M, Hassiepen U, (2009) “A fluorescence lifetime-based assay for protease inhibitor profiling on human kallikrein 7”, Biomol Screen, January; 14(1):1-9.
In particular, the in vitro inhibition of recombinant human neutral endopeptidase can be determined as follows:
Recombinant human neutral endopeptidase (expressed in insect cells and purified using standard methods, final concentration 7 pM) is pre-incubated with test compounds at various concentrations for 1 hour at room temperature in 10 mM sodium phosphate buffer at pH 7.4, containing 150 mM NaCl and 0.05% (w/v) CHAPS. The enzymatic reaction is started by the addition of a synthetic peptide substrate Cys(PT14)-Arg-Arg-Leu-Trp-OH to a final concentration of 0.7 μM. Substrate hydrolysis leads to an increase in fluorescence lifetime (FLT) of PT14 measured by means of a FLT reader as described by Doering et al. (2009) as referenced supra. The effect of the compound on the enzymatic activity was determined after 1 hour (t=60 min) incubation at room temperature. […]

peripheral NEP = target: T2, peripheral NEP (Rattus norvegicus, UniProt P07861); experiment: ANP potentiation model in conscious rats (plasma ANP after oral dose); type: in vivo, Wistar Han (WH) rats; conditions: for PANP % of baseline: 0- to 8-hr time-weighted average of plasma ANP, ANP infusion 450 ng/kg/min i.v.
T2 construct: from tissue; host or cells: whole animal: adult male Wistar Han rats (Charles River Labs), peripheral tissues
T2 sequence (P07861 1-750): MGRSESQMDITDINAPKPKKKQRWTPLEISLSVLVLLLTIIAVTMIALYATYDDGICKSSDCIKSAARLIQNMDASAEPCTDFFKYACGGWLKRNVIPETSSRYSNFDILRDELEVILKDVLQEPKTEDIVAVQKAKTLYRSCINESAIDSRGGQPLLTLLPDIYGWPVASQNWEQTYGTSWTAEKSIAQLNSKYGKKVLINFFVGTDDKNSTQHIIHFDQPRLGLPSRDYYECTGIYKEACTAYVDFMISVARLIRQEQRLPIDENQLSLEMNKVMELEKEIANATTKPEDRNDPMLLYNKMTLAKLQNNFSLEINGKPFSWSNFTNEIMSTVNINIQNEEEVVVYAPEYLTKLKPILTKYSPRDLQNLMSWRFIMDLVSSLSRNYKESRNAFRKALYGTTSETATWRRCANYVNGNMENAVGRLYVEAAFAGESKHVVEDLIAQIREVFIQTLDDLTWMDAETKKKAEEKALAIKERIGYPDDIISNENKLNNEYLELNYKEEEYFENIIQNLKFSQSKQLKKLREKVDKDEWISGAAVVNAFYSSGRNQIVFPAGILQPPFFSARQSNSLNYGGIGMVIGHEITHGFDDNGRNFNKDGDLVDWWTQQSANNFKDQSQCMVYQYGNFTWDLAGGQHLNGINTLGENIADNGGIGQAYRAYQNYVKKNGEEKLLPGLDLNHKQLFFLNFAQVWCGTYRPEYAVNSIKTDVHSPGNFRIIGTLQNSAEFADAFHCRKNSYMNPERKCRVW
Method: In particular, the in vivo inhibition of recombinant human neutral endopeptidase can be determined as follows:
Thus, the potentiation of plasma ANP was used as an index of the extent and duration of inhibition of peripheral NEP by the orally administered compounds.
They were housed on a 12-hr light/dark cycle (light: 6 am to 6 pm) at temperature and relative humidity set points of 72° F. and 55%, respectively. […] In this case, the evening before the experiment (˜5 pm) all but two of the rat's chow pellets were removed. On the morning of the experiment, any remaining food was removed. […] Food was returned at the experiment terminus.
Rats were surgically instrumented with catheters to allow collection of arterial blood samples and intravenous (i.v.) administration of ANP. Rats were anesthetized and maintained in a surgical plane of anesthesia with isoflurane (2% in 100% oxygen). Ophthalmic lubricant was applied to each eye to prevent corneal irritation. Meloxicam (0.2 mg/kg s.c.) was administered for analgesia. If necessary for pain management, a second injection of meloxicam was administered on the first post-operative day. Also, a dose of penicillin G (50,000 U/kg i.m.) was administered pre-operatively to prevent infection.
Under aseptic surgical conditions, a femoral artery and vein were isolated and catheters inserted. Catheters consisted of a ˜55-cm length of Tygon (PVC) Microbore tubing (0.020″, 0.060″ O.D.) bonded with cyclohexanone to a 4.5-cm length of polyurethane (0.012″ I.D., 0.025″ O.D., Micro-Renathane type MRE-025, Braintree Scientific, Inc., Braintree, Mass.) tubing. The catheters were tunneled subcutaneously and exteriorized in the mid-dorsal thoracic/abdominal region. Catheters exited through a subcutaneously anchored tether/swivel system which allowed the animal to move unrestrained in a specialized Plexiglas cage with perforated solid flooring. Catheters were flushed with sterile 0.9% saline and locked with 200 U/mL heparin in sterile 0.9% saline after the surgery was completed.
The rats were allowed to recover for at least one week before being studied while conscious and unrestrained. Rats were infused intravenously (450 ng/kg/min) with rat ANP (ANP (1-28), Product #14-5-41, American Peptide Company, Inc., Sunnyvale, Calif.). After 1 hr of ANP infusion, rats were treated by oral gavage with 1 mL/kg of vehicle (0.5% methylcellulose+0.1% Tween 80) or a selected dose of NEP inhibitor. ANP infusion was continued for an additional 8 hr. Arterial blood samples (0.20 mL) were withdrawn from the femoral arterial cannulas at various times (baseline or time 0, 0.25, 0.5, 1, 2, 4, 6, and 8 hr) into a collection tube containing 0.004 mL EDTA/protease inhibitor (PI) cocktail. Blood samples were centrifuged at 4° C. and 20K g to separate plasma. Plasma samples were aliquoted and frozen (−70° C.) for later analysis of plasma ANP (PANP) levels. The O— to 8-hr time-weighted averages of the PANP concentrations expressed as a percent of the baseline (time 0) PANP values were used to generate dose-response relationships.
The blood collection cocktail consisted of broad-spectrum serine and cysteine PIs and EDTA. […] It also anticoagulated the blood.
The frozen plasma sample was thawed on ice and 10 μL of plasma was diluted 1:10 in 1× assay buffer supplied with the kit. Ten μL of the diluted sample was then assayed. The manufacturer's instructions were followed for the assay protocol (total volume per well was expanded to 50 μl with 1× assay buffer). Absorbance was read (Molecular Devices SpectraMax Paradigm Multi-Mode Detection Platform) at 450 nm within ten minutes of the assay termination.

SMILES	IC50 [1]	in vivo efficacy compared to Example 5-46 of WO2010/136493 (peripheral NEP; ANP potentiation model, oral)	PANP % of baseline (peripheral NEP; dose 1 mg/kg oral gavage)	PANP % of baseline (peripheral NEP; dose 3 mg/kg oral gavage)	PANP % of baseline (peripheral NEP; dose 10 mg/kg oral gavage)	PANP % of baseline (peripheral NEP; dose 30 mg/kg oral gavage)	PANP % of baseline (peripheral NEP; dose 100 mg/kg oral gavage)
COc1ccc(F)cc1-c1ccc(C[C@H](CC(=O)O)NC(=O)c2n[nH]c(=O)o2)cc1 [Example 1, (R)-4-(5′-fluoro-2′-methoxy-[1,1-biphenyl]-4-yl)-3-(5-oxo-4,5-dihydro-1,3,4-oxadiazole-2-carboxamido)butanoic acid]	0.06 nM	superior efficacy	141 % of baseline	183 % of baseline	238 % of baseline	–	–
O=C(O)C[C@@H](Cc1ccc(-c2cccc(Cl)c2)cc1)NC(=O)c1n[nH]c(=O)o1 [Example 5-46 of WO2010/136493, reference compound]	–	–	–	137 % of baseline	126 % of baseline	185 % of baseline	254 % of baseline
